target: Dephosphorylated BTK (Homo sapiens, UniProt Q06187); test: Test of activity inhibition against dephosphorylated BTK (mobility shift assay)
Sequence (Q06187 whole entry): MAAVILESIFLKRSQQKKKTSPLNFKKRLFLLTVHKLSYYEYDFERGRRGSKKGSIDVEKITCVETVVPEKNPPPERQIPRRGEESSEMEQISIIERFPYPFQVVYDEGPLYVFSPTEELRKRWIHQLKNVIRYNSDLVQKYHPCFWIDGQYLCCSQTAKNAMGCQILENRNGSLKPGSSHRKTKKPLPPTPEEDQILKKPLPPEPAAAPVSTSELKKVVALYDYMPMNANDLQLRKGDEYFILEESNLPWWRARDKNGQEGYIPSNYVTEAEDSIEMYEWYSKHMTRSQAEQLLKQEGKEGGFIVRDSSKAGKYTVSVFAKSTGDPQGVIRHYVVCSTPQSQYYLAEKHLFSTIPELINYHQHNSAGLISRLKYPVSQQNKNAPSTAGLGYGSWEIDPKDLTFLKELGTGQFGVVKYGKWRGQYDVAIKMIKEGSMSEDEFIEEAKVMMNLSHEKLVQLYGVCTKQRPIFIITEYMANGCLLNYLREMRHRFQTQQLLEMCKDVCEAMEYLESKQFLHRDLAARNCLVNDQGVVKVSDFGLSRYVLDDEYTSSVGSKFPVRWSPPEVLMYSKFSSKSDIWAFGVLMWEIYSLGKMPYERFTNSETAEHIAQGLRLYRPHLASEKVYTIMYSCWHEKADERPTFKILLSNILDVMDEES
Description: Kinase activity was measured by a mobility shift assay (MSA) method using QuickScout Screening Assist (trademark) MSA (commercially available kit, manufactured by Carna Biosciences, Inc.). FITC-labeled SRCtide peptide supplied with the kit was used as a substrate of a kinase reaction.
IC50 value was calculated by regression analysis of the inhibition ratio and the test compound concentration (logarithm).
Dephosphorylated BTK was obtained by adding a A protein phosphatase (Code No. P0753S, manufactured by New England BioLabs Inc.) and MnCl2 to a biotinylated BTK protein BTN-BTK (manufactured by Carna Biosciences, Inc.) enzyme solution so as to adjust the concentrations to 10 U/μg and 2 mM, respectively, reacting the mixture at 4° C. overnight, removing the A protein phosphatase through anti-[sequence]-tag antibody agarose gel chromatography, and performing buffer exchange using 10DG Desalting Column.

Row | Structure (SMILES) | IC50 [nM]
1 | Cc1c(-c2nc(N)nc(Nc3ccc(C(=O)N4CCOCC4)cc3)n2)cccc1N1Cc2cc(C(C)(C)C)sc2C1=O [Example 42, 5-[3-(4-Amino-6-{[4-(morpholine-4-carbonyl)phenyl]amino}-1,3,5-triazin-2-yl)-2-methylphenyl]-2-(tert-butyl)-4H-thieno[2,3-c]pyrrol-6(5H)-one] | 6.5
2 | Cc1c(NC(=O)c2ccc(C(C)(C)C)cc2)cccc1-c1nc(N)nc(Nc2ccc(CN3CCOCC3)cc2)n1 [Example 38, N-[3-(4-Amino-6-{[4-(mor-pholinomethyl)phe-nyl]amino}-1,3,5-triazin-2-yl)-2-methylphe-nyl]-4-(tert-butyl)benz-amide] | 1.2
3 | CC(C)(C)c1ccc(C(=O)Nc2cccc(-c3nc(N)nc(Nc4ccc(Cn5ccccc5=O)cc4)n3)c2CO)cc1 [Example 173, N-{3-[4-Amino-6-({4-[(2-oxopyridin-1(2H)-yl)methyl]phenyl}amino)-1,3,5-triazin-2-yl]-2-(hydroxymethyl)phe-nyl}-4-(tert-butyl) benzamide] | 0.6
4 | CC(C)(C)c1ccc(C(=O)Nc2cccc(-c3nc(N)nc(Nc4ccc5c(c4)OCC(=O)N5)n3)c2CO)cc1 [Example 154, N-(3-{4-Amino-6-[(3-oxo-3,4-dihydro-2H-ben-zo[b][1,4]oxazin-7-yl)amino]-1,3,5-triazin-2-yl}-2-(hydroxymeth-yl)benzyl)-4-(tert-bu-tyl)benzamide] | 0.9
5 | Nc1nc(Nc2cnn(CC3CCOCC3)c2)nc(-c2cccc(N3CCc4cc(C5CC5)cc(F)c4C3=O)c2CO)n1 [Example 257, 2-{3-[4-Amino-6-({1-[(tetra-hydro-2H-pyran-4-yl)methyl]-1H-pyrazol-4-yl}amino)-1,3,5-triazin-2-yl]-2-(hydroxy-methyl)phenyl}-6-cyclo-propyl-8-fluoro-3,4-dihydroisoquinolin-1(2H)-one] | 0.6
6 | CNC(=O)c1cc(Nc2nc(N)nc(-c3cccc(N4CCc5cc(C6CC6)cc(F)c5C4=O)c3CO)n2)cn1C [Example 232, 4-({4-Amino-6-[3-(6-cyclo-propyl-8-fluoro-1-oxo-3,4-dihydroisoquinolin-2(1H)-yl)-2-(hy-droxymethyl)phenyl]-1,3,5-triazin-2-yl}ami-no)-N,1-dimethyl-1H-pyrrole-2-carboxamide] | 0.7
7 | CC(C)(C)OC(=O)N1CCN(c2ccc(Nc3nc(N)nc(-c4cccc(NC(=O)c5ccc(C(C)(C)C)cc5)c4CO)n3)cc2)CC1 [Example 104, tert-Butyl 4-{4-[(4-amino-6-{3-[4-(tert-butyl)benzamido]-2-(hydroxymethyl)phenyl}-1,3,5-triazin-2-yl)amino]phenyl} piperazine-1-carboxylate] | 5
8 | CC(=O)OCc1c(NC(=O)c2ccc(C(C)(C)C)cc2)cccc1-c1nc(N)nc(Nc2ccc(O)cc2)n1 [Example 110, 2-{4-Amino-6-[(4-hydroxy-phenyl)amino]-1,3,5-triazin-2-yl}-6-[4-(tert-butyl)benzamido] benzyl acetate] | 17.9
9 | CC(C)(C)c1ccc(C(=O)Nc2cccc(-c3nc(N)nc(Nc4cccc(Cn5cccn5)c4)n3)c2CO)cc1 [Example 161, N-{3-[4-({3-[(1H-Pyra-zol-1-yl)methyl]phenyl}amino)-6-amino-1,3,5-triazin-2-yl]-2-(hy-droxymethyl)phenyl}-4-(tert-butyl)benzamide] | 1.1
10 | COc1c(NC(=O)c2ccc(C(C)(C)C)cc2)cccc1-c1nc(N)nc(Nc2ccc(N3CCOCC3)cc2)n1 [Example 96, N-(3-{4-Amino-6-[(4-morpholinophenyl)amino]-1,3,5-triazin-2-yl}-2-methoxyphenyl)-4-(tert-butyl)benzamide] | 7.7
11 | Cc1c(NC(=O)c2ccc(C(C)(C)C)cc2)cccc1-c1nc(N)nc(Nc2ccc(N3CCC(N4CCOCC4)CC3)cc2)n1 [Example 80, N-[3-(4-Amino-6-{[4-(4-morpholinopiperidin-1-yl)phenyl]amino}-1,3,5-triazin-2-yl)-2-methylphenyl]-4-(tert-butyl)benzamide] | 2.1
12 | Nc1nc(Nc2cnn(CCO)c2)nc(-c2cccc(N3CCc4cc(C5CC5)cc(F)c4C3=O)c2CO)n1 [Example 179, 2-[3-(4-Amino-6-{[1-(2-hydroxyethyl)-1H-py-razol-4-yl]amino}-1,3,5-triazin-2-yl)-2-(hy-droxymethyl)phenyl]-6-cyclopropyl-8-fluoro-3,4-dihydroisoquino-lin-1(1H)-one] | 0.9
13 | Nc1nc(Nc2ccc(N3CCOC(CO)C3)cc2)nc(-c2cccc(NC(=O)c3cc4c(s3)CCCC4)c2CO)n1 (stereo not drawn) [Example 127, N-{3-[4-Amino-6-({4-[2-(hydroxymethyl)morpho-lino]phenyl}amino)-1,3,5-triazin-2-yl]-2-(hydroxymethyl)phenyl}-4,5,6,7-tetrahydro-benzo[b]thiophene-2-carboxamide] | 0.5
14 | Nc1nc(Nc2ccc(N3CCOCC3)c(F)c2)nc(-c2cccc(N3CCc4cc(C5CC5)cc(F)c4C3=O)c2CO)n1 [Example 242, 2-(3-{4-Amino-6-[(3-fluoro-4-morpholinophe-nyl)amino]-1,3,5-tri-azin-2-yl}-2-(hydroxymeth-yl)phenyl)-6-cyclo-propyl-8-fluoro-3,4-di-hydroisoquinolin-1(2H)-one] | 1.5
15 | Nc1nc(Nc2ccc(N3CCN(C=O)CC3)cc2)nc(-c2cccc(N3CCc4cc(C5CC5)cc(F)c4C3=O)c2CO)n1 [Example 189, 4-[4-({4-Amino-6-[3-(6-cyclopropyl-8-fluoro-1-oxo-3,4-dihydroiso-quinolin-2(1H)-yl)-2-(hydroxymethyl)phenyl]-1,3,5-triazin-2-yl}amino)phenyl]pipera-zine-1-carbaldehyde] | 1.2
16 | CC(C)(C)c1ccc(C(=O)Nc2cccc(-c3nc(N)nc(Nc4ccc(N5CCOC(CO)C5)cc4)n3)c2CO)cc1 (stereo not drawn) [Example 106, N-{3-[4-Amino--({4-[2-(hydroxymethyl)morpho-lino]phenyl}amino)-1,3,5-triazin-2-yl]-2-(hydroxymethyl)phenyl}-4-(tert-butyl)benzamide] | 0.7
17 | Nc1nc(Nc2cnn([C@@H]3CCOC3)c2)nc(-c2cccc(N3CCc4cc(C5CC5)cc(F)c4C3=O)c2CO)n1 [Example 236, (R)-2-[3-(4-Amino-6-{[1-(tetrahydrofuran-3-yl)-1H-pyrazol-4-yl]amino}-1,3,5-triazin-2-yl)-2-(hydroxymeth-yl)phenyl]-6-cyclopropyl-8-fluoro-3,4-dihydro-isoquinolin-1(2H)-one] | 0.8
18 | CC(C)(C)c1ccc(C(=O)Nc2cccc(-c3nc(N)nc(Nc4ccc(N5CCOCC5)nc4)n3)c2CO)cc1 [Example 174, N-(3-{4-Amino-6-[(6-morpholinopyridin-3-yl)amino]-1,3,5-triazin-2-yl}-2-(hydroxymeth-yl)phenyl)-4-(tert-butyl)benzamide] | 1.5
19 | Nc1nc(Nc2cnn(C3CCCC3)c2)nc(-c2cccc(N3CCc4cc(C5CC5)cc(F)c4C3=O)c2CO)n1 [Example 239, 2-(3-{4-Amino-6-[(1-cyclo-pentyl-1H-pyrazol-4-yl)amino]-1,3,5-tri-azin-2-yl}-2-(hydroxy-methyl)phenyl)-6-cyclo-propyl-8-fluoro-3,4-dihydroisoquinolin-1 (2H)-one] | 0.5
20 | Nc1nc(Nc2ccc(OCCN3CCOCC3)cc2)nc(-c2cccc(NC(=O)c3cc4c(s3)CCCC4)c2CO)n1 [Example 138, N-[3-(4-Amino-6-{[4-(2-morpholinoethoxy)phe-nyl]amino}1,3,5-tri-azin-2-yl)-2-(hydroxy-methyl)phenyl]-4,5,6,7-tetrahydrobenzo[b]thio-phene-2-carboxamide] | 1.7
21 | CS(=O)(=O)n1cc(Nc2nc(N)nc(-c3cccc(N4CCc5cc(C6CC6)cc(F)c5C4=O)c3CO)n2)cn1 [Example 233, 2-[3-(4-Amino-6-{[1-(meth-ylsulfonyl)-1H-py-razol-4-yl]amino}-1,3,- 5-triazin-2-yl)-2-(hy-droxymethyl)phenyl]-6-cyclopropyl-8-fluoro-3,4-dihydroisoquino-lin-1(2H)-one] | 4.2
22 | CN(C)CCCOc1ccc(Nc2nc(N)nc(-c3cccc(NC(=O)c4cc5c(s4)CCCC5)c3CO)n2)cc1 [Example 135, N-{3-[4-Amino-6-({4-[3-(dimethylamino)prop-oxy]phenyl}amino)-1,3,5-triazin-2-yl]-2-(hy-droxymethyl)phenyl}-4,5,6,7-tetrahydro-benzo[b]thiophene-2-carboxamide] | 1.3
23 | CC(C)(C)c1ccc(C(=O)Nc2cccc(-c3nc(N)nc(Nc4cccc(O)c4)n3)c2CO)cc1 [Example 121, N-(3-{4-Amino-6-[(3-hy-droxyphenyl)amino]-1,3,5-triazin-2-yl}-2-(hydroxymethyl)phenyl)-4-(tert-butyl)benza-mide] | 1.2
24 | CC(C)(C)c1ccc(C(=O)Nc2cccc(-c3nc(N)nc(Nc4ccc5[nH]c(C(F)(F)F)nc5c4)n3)c2CO)cc1 [Example 187, N-[3-(4-Amino-6-{[2-(tri-fluoromethyl)-1H-benzo[d]imidazol-5-yl]amino}-1,3,5-triazin-2-yl)-2-(hydroxymeth-yl)phenyl]-4-(tert-butyl)benzamide] | 5.6
25 | CC(C)(C)c1ccc(C(=O)Nc2cccc(-c3nc(N)nc(Nc4ccc(OCCN5CCOCC5)cc4)n3)c2CO)cc1 [Example 78, N-[3-(4-Amino-6-{[4-(2-morpholinoethoxy)phe-nyl]amino}-1,3,5-tri-azin-2-yl)-2-(hydroxy-methyl)phenyl]-4-(tert-butyl)benzamide] | 1.2
26 | Nc1nc(Nc2ccn([C@H]3CCOC3)c2)nc(-c2cccc(N3CCc4cc(C5CC5)cc(F)c4C3=O)c2CO)n1 [Example 249, (S)-2-[3-(4-Amino-6-{[1-(tetrahydrofuran-3-yl)-1H-pyrrol-3-yl]ami-no}-1,3,5-triazin-2-yl)-2-(hydroyxmethyl)phenyl]-6-cyclopropyl-8-fluoro-3,4-dihydro-isoquinolin-1(2H)-one] | 1
27 | CC1(Cn2cc(Nc3nc(N)nc(-c4cccc(N5CCc6cc(C7CC7)cc(F)c6C5=O)c4CO)n3)cn2)CC1 [Example 273, 2-{3-[4-Amino-6-({1-[(1-methylcyclopropyl)methyl]-1H-pyrazol-4-yl}amino)-1,3,5-triazin-2-yl]-2-(hydroxymeth-yl)phenyl}-6-cyclo-propyl-8-fluoro-3,4-di-hydroisoquinolin-1(2H)-one] | 2.4

Source: US20150011751A1, “NOVEL TRIAZINE DERIVATIVE” (CARNA BIOSCIENCES, INC., priority 2012, published 2015)
